16 compounds from US20090311217A1, “3-SUBSTITUTED-1H-INDOLE COMPOUNDS, THEIR USE AS MTOR KINASE AND PI3 KINASE INHIBITORS, AND THEIR SYNTHESES” (priority 2008, published 2009) can be followed below.

Where two headings read alike, the source gives them in different places. Where only a bound is given, the exact number is not on record here.

Holding throughout (format): biochemical
One assay concerns the target PI3K-gamma (Homo sapiens, UniProt P48736). Nature of the assay: PI3K-gamma fluorescence polarization assay. The essentials: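 Reactions in 5 mM HEPES pH 7, 2.5 mM MgCl2, 25 μM ATP with 2.5 μM diC8-PI(4,5)P2 and 5 ng enzyme, 1 h at 25° C, then EDTA quench. Product detected by FP using GST-GRP1 PH domain (100 nM) and BODIPY-TMR-IP4 tracer (5 nM); final DMSO 0.8%.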
Background: Polarisation of emitted light reports the rotation of a fluorescent probe.

The target in the next assay is PI3K-alpha (Homo sapiens, UniProt P42336). Description: PI3K-alpha fluorescence polarization assay. The following applies: read-out: PI3Kα Avg. IC50.
Another assay deals with T1, human TOR (Homo sapiens, UniProt P42345).
T1 construct: FLAG
Nature of the assay: mTOR enzyme assay (DELFIA, His6-S6K substrate). The following applies: read-out: mTOR Kinase Avg. IC50.

Chain of PI3K-alpha (P42336 whole entry, species assumed): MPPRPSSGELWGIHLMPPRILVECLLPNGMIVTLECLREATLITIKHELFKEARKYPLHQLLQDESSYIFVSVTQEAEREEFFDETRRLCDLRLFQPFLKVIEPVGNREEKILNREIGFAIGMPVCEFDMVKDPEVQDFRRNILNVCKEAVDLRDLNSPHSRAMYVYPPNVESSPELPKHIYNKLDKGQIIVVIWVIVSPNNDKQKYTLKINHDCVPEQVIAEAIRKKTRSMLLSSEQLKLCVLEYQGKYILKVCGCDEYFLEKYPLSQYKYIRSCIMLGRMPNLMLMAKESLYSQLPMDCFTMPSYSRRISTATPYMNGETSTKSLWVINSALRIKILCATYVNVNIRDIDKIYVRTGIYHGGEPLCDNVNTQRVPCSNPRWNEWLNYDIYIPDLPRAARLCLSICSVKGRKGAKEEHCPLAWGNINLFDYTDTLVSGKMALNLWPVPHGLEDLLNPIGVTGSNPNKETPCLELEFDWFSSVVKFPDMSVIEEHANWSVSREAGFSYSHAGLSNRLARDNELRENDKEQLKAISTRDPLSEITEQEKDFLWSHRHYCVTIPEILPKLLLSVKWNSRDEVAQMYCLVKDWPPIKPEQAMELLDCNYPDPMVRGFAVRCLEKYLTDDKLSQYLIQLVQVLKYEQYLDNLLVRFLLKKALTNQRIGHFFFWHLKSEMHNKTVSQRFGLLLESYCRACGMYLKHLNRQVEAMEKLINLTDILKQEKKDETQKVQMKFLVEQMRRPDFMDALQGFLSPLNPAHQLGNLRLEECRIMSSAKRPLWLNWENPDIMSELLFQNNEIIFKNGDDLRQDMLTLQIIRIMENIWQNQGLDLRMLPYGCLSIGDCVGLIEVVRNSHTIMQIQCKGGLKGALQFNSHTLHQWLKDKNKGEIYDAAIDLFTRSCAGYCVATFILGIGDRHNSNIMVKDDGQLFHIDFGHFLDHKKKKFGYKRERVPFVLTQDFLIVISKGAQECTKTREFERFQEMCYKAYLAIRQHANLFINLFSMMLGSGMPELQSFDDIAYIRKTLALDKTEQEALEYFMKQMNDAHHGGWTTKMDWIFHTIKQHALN
Chain of PI3K-alpha (P27986 whole entry partner, species assumed): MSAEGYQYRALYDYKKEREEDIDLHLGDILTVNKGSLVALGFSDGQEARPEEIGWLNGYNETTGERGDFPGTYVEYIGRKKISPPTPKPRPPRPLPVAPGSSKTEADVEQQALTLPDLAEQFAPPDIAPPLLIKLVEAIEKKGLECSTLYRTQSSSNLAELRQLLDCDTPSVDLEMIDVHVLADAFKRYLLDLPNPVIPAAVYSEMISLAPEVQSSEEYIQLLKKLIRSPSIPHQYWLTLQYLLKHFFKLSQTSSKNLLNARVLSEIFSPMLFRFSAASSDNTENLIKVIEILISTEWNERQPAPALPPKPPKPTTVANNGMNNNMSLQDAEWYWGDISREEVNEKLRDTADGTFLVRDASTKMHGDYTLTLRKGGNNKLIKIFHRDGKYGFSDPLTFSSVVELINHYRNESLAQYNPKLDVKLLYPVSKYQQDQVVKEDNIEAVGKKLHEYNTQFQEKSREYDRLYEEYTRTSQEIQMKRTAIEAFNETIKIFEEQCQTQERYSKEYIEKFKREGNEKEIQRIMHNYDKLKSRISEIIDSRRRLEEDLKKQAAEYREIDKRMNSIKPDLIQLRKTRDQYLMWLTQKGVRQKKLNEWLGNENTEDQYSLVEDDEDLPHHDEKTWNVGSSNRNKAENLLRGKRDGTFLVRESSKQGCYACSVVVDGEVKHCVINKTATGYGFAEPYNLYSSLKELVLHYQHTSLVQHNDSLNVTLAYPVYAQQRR
Chain of PI3K-gamma (P48736 whole entry, species assumed, the tested form may be a part): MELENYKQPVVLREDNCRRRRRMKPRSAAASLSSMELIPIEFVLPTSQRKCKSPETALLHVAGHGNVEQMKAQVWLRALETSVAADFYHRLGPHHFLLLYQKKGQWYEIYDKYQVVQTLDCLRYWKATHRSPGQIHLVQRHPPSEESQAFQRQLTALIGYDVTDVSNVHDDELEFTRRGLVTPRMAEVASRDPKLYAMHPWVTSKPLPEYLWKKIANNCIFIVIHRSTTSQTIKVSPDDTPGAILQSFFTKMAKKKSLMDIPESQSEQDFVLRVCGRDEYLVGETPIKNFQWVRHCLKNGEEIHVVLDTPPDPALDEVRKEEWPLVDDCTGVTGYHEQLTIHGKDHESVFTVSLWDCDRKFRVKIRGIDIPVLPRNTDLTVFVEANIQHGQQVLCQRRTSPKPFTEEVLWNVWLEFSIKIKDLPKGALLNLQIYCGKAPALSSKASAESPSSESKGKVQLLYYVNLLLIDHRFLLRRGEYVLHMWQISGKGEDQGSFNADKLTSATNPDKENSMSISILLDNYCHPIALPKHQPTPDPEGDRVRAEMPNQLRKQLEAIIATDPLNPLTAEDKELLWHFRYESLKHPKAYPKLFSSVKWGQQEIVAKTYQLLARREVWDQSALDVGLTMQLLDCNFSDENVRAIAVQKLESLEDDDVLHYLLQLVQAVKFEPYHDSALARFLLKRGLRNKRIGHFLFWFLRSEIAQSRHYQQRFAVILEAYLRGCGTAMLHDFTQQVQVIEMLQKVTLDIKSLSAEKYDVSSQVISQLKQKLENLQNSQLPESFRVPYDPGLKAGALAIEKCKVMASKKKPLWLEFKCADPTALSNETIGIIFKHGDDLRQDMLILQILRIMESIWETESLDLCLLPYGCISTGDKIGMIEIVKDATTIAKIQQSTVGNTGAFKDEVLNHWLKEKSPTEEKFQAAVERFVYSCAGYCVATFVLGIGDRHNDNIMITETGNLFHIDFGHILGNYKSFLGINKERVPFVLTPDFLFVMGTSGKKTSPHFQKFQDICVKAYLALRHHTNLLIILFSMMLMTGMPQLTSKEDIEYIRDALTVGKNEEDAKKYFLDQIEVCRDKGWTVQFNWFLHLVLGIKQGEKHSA

By IC50 is commonly meant the point on the concentration scale where inhibition reaches its midpoint. For `COc1ccc2c(c1)c(/C=C1\Oc3ccc(NC(=O)Nc4ccc(C(=O)N5CCN(C)CC5)cc4)cc3C1=O)c(C)n2C` [Compound 658, 1-{(2Z)-2-[(5-methoxy-1,2-dimethyl-1H-indol-3-yl)methylidene]-3-oxo-2,3-dihydro-1-benzofuran-5-yl}-3-{4-[(4-methylpiperazin-1-yl)carbonyl]phenyl}urea], the half-maximal inhibitory concentration (IC50) on PI3K-gamma (PI3Kγ Avg. IC50) was found to be 2.15 nM; on PI3K-alpha, 0.3 nM; on human TOR it was 2450 nM.

With `COc1ccc2[nH]c(-c3c(C)nn(C)c3C)c(/C=C3\Oc4ccc(NC(=O)Nc5ccc(C(=O)N(C)CCN(C)C)cc5)cc4C3=O)c2c1` [Compound 682, N-[2-(dimethylamino)ethyl]-4-({[(2Z)-2-{[5-methoxy-2-(1,3,5-trimethyl-1H-pyrazol-4-yl)-1H-indol-3-yl]methylidene}-3-oxo-2,3-dihydro-1-benzofuran-5-yl]carbamoyl}amino)-N-methylbenzamide], the IC50 was 1.98 nM on PI3K-gamma (PI3Kγ Avg. IC50), 0.3 nM on PI3K-alpha and 1 nM at human TOR.

As for `CNC(=O)Nc1ccc2c(c1)C(=O)/C(=C/c1c(C(C)(C)C)[nH]c3ccc(OC)cc13)O2` [Compound 631, 1-{(2Z)-2-[(2-tert-butyl-5-methoxy-1H-indol-3-yl)methylidene]-3-oxo-2,3-dihydro-1-benzofuran-5-yl}-3-methylurea], the IC50 came out at 54.5 nM at PI3K-gamma (PI3Kγ Avg. IC50), 5 nM at PI3K-alpha and 2 nM at human TOR.

`COc1ccc2c(c1)c(/C=C1\Oc3cc(O)cc(C)c3C1=O)c(C)n2CCCN(C)C` [Example 468, (2Z)-2-({1-[3-(Dimethylamino)propyl]-5-methoxy-2-methyl-1H-indol-3-yl}methylene)-6-hydroxy-4-methyl-1-benzofuran-3(2H)-one]: the values for the IC50 against PI3K-gamma (PI3Kγ Avg. IC50), at PI3K-alpha and at human TOR were 3200 nM, 48.5 nM and 2200 nM, respectively.

For the compound `COc1ccc2c(c1)c(/C=C1\Oc3ccc(NC(=O)Nc4ccc(NCCN(C)C)cc4)cc3C1=O)c(C)n2CCN1CCN(C)CC1` [Compound 684, 1-(4-{[2-(dimethylamino)ethyl]amino}phenyl)-3-[(2Z)-2-({5-methoxy-2-methyl-1-[2-(4-methylpiperazin-1-yl)ethyl]-1H-indol-3-yl}methylidene)-3-oxo-2,3-dihydro-1-benzofuran-5-yl]urea], the IC50 against PI3K-gamma (PI3Kγ Avg. IC50) is 1720 nM; at PI3K-alpha, 7 nM; on human TOR it was 19 nM.

On to `CNC(=O)Nc1ccc2c(c1)C(=O)/C(=C/c1c(-c3cnn(CC(C)C)c3)[nH]c3ccc(OC)cc13)O2` [Compound 706, 1-[(2Z)-2-({5-methoxy-2-[1-(2-methylpropyl)-1H-pyrazol-4-yl]-1H-indol-3-yl}methylidene)-3-oxo-2,3-dihydro-1-benzofuran-5-yl]-3-methylurea], for which the values for the IC50 on PI3K-gamma (PI3Kγ Avg. IC50), at PI3K-alpha and on human TOR were 10 nM, 1.3 nM and 10 nM, respectively.

`COc1ccc2c(c1)c(/C=C1\Oc3cc(O)ccc3C1=O)cn2CCCN(C)C` [Example 324, (2Z)-2-({1-[3-(Dimethylamino)propyl]-5-methoxy-1H-indol-3-yl}methylene)-6-hydroxy-1-benzofuran-3(2H)-one]: the IC50 against PI3K-gamma (PI3Kγ Avg. IC50) was determined as 656 nM; at PI3K-alpha, 91.5 nM; on human TOR, 365 nM.

As to `COc1ccc2c(c1)c(/C=C1\Oc3ccc(NC(=O)Nc4ccc(C(=O)N5CCOCC5)cc4)cc3C1=O)c(C)n2CCN1CCN(C)CC1` [Compound 687, 1-[(2Z)-2-({5-methoxy-2-methyl-1-[2-(4-methylpiperazin-1-yl)ethyl]-1H-indol-3-yl}methylidene)-3-oxo-2,3-dihydro-1-benzofuran-5-yl]-3-[4-(morpholin-4-ylcarbonyl)phenyl]urea], the results for the IC50 on PI3K-gamma (PI3Kγ Avg. IC50), on PI3K-alpha and at human TOR were 44 nM, 1.1 nM and 87 nM, respectively.

Consider `COc1ccc2c(c1)c(/C=C1\Oc3ccc(NC(=O)Nc4ccc(N(C)C(=O)CCN(C)C)cc4)cc3C1=O)c(C)n2CCN1CCN(C)CC1` [Compound 695, N-[4-({[(2Z)-2-({5-methoxy-2-methyl-1-[2-(4-methylpiperazin-1-yl)ethyl]-1H-indol-3-yl}methylidene)-3-oxo-2,3-dihydro-1-benzofuran-5-yl]carbamoyl}amino)phenyl]-N,N3,N3-trimethyl-b-alaninamide], for which the IC50 on PI3K-gamma (PI3Kγ Avg. IC50) was above 5500 nM; at PI3K-alpha it was 4 nM; at human TOR, 330 nM.

On to “(2Z)-2-[(4-Bromo-1-methyl-1H-indol-3-yl)methylene]-4,6-dimethoxybenzofuran-3(2H)-one [Example 408]”, for which the results for the IC50 on PI3K-gamma (read-out: PI3Kγ Avg. IC50), on PI3K-alpha and at human TOR were 1940 nM, 3310 nM and above 20000 nM, respectively.

With `COc1ccc2[nH]c(-c3c(C)nn(C)c3C)c(/C=C3\Oc4ccc(NC(=O)Nc5ccc(C(=O)N(C)C6CCN(C)C6)cc5)cc4C3=O)c2c1` (stereo not drawn) [Compound 698, 4-({[(2Z)-2-{[5-methoxy-2-(1,3,5-trimethyl-1H-pyrazol-4-yl)-1H-indol-3-yl]methylidene}-3-oxo-2,3-dihydro-1-benzofuran-5-yl]carbamoyl}amino)-N-methyl-N-(1-methylpyrrolidin-3-yl)benzamide], the figures for the IC50 against PI3K-gamma (PI3Kγ Avg. IC50), on PI3K-alpha and on human TOR were 3 nM, 0.3 nM and 1 nM, respectively.

`COc1ccc2c(c1)c(/C=C1\Oc3ccc(NC(=O)Nc4cccnc4)cc3C1=O)c(C)n2CCN1CCN(C)CC1` [Compound 617, 1-[(2Z)-2-({5-methoxy-2-methyl-1-[2-(4-methylpiperazin-1-yl)ethyl]-1H-indol-3-yl}methylidene)-3-oxo-2,3-dihydro-1-benzofuran-5-yl]-3-pyridin-3-ylurea]: the IC50 at PI3K-gamma (PI3Kγ Avg. IC50) came to 246 nM; at PI3K-alpha, 1.9 nM; at human TOR, 58 nM.

Turning to `O=C1C(=Cc2c(-c3ccccc3)n(Cc3ccccc3)c3ccccc23)Oc2cc(O)cc(O)c21` [Example 149, 2-[(1-benzyl-2-phenyl-1H-indol-3-yl)methylene]-4,6-dihydroxy-1-benzofuran-3(2H)-one], the IC50 on PI3K-gamma (PI3Kγ Avg. IC50) came out at 2010 nM; on PI3K-alpha it was 1590 nM; on human TOR, 6150 nM.

Take `COc1ccc2c(c1)c(/C=C1\Oc3cc(O)cc(O)c3C1=O)c(C(=O)N1CCCC1)n2CCN1CCN(C)CC1` [Example 430, (2Z)-4,6-Dihydroxy-2-({5-methoxy-1-[2-(4-methylpiperazin-1-yl)ethyl]-2-(pyrrolidin-1-ylcarbonyl)-1H-indol-3-yl}methylene)-1-benzofuran-3(2H)-one]: the results for the IC50 on PI3K-gamma (PI3Kγ Avg. IC50), at PI3K-alpha and on human TOR were 197 nM, 7.5 nM and 115 nM, respectively.

For the compound `COc1ccc2c(c1)c(/C=C1\Oc3cc(CO)ccc3C1=O)cn2CCCN(C)C` [Example 424, (2Z)-2-({1-[3-(dimethylamino)propyl]-5-methoxy-1H-indol-3-yl}methylene)-6-(hydroxymethyl)-1-benzofuran-3(2H)-one], the IC50 on PI3K-gamma (PI3Kγ Avg. IC50) was above 10000 nM; at PI3K-alpha, 4020 nM; at human TOR, above 20000 nM.

Turning to `CNCCNC(=O)Nc1ccc2c(c1)C(=O)/C(=C/c1c(-c3c(C)nn(C)c3C)[nH]c3c(F)cc(OC)cc13)O2` [Compound 728, 1-[(2Z)-2-{[7-fluoro-5-methoxy-2-(1,3,5-trimethyl-1H-pyrazol-4-yl)-1H-indol-3-yl]methylidene}-3-oxo-2,3-dihydro-1-benzofuran-5-yl]-3-[2-(methylamino)ethyl]urea], the IC50 against PI3K-gamma (PI3Kγ Avg. IC50) is 3.55 nM; at PI3K-alpha it was 0.95 nM; on human TOR, 7 nM.
